Results published in patent publication US10723723B2, “Substituted bicycle heterocyclic derivatives useful as ROMK channel inhibitors” (BRISTOL-MYERS SQUIBB COMPANY, priority 2016, dated 2020).

Biological target: hROMK (human Kir1.1) (Homo sapiens (Human), UniProt P48048)
Experiment: Thallium Flux Assay (FluxOR, CHO T-Rex hROMK stable cell line)
Type: cell-based
Conditions: CHO T-Rex hROMK cells, 10-point concentration response curve; read-out: Human ROMK TH Flux IC50
Protocol: Solutions and reagents: Thallium flux assay was performed using FluxOR kit (F10017, Life Technologies). Loading buffer, assay buffer and stimulus buffer were prepared using kit components.
To prepare 10 ml of loading buffer: 10 μl of FluxOR dye (reconstituted in DMSO) was first added to 100 μl of powerload concentrate and this mix along with 100 μl of Probenicid (100×) was then added to 9.79 ml of HBSS. […] Stimulus buffer was composed of 15 mM Tl2SO4, 0.75 mM K2SO4 in FluxOR chloride free buffer (diluted to 1× using deionized water). The final concentration of Tl2SO4 and K2SO4 in the assay plate was 3 mM and 0.15 mM, respectively.
Plating and induction of cells: The CHO T-Rex hROMK (human Kir1.1) stable cell line was maintained in Ham's F12 media supplemented with 10% FBS, 1% Penicillin-Streptomycin, 500 μg/ml Zeocin and 10 μg/ml Blasticidin at 37° C. in a 5% CO2 incubator. […] The cell suspension was centrifuged at 1200 rpm for 5 min. After discarding the supernatant, the cells were resuspended in fresh growth media and cell concentration was determined using a hemocytometer. […] The assay plate was kept at 37° C. in a 5% CO2 incubator.
Assay protocol: On the day of experiment, media was removed and loading buffer was added (30 μl/well) to the assay plate. The cells were incubated in the loading buffer for 30 minutes at 37° C. The loading buffer was then replaced by assay buffer (30 μl/well) followed by addition of test compounds or controls. […] Each well was read for 90 sec at 2 sec interval and the stimulus buffer was added after 20 seconds of baseline recording. The final DMSO concentration was either 0.5 or 1% in the assay plate. Positive and negative controls were defined by addition of DMSO or 3 μM of a standard ROMK inhibitor, respectively, to the wells instead of a test compound.
A 10-point concentration response curve was used to estimate the IC50 value of test compounds.

Chain of hROMK (human Kir1.1) (P48048 whole entry): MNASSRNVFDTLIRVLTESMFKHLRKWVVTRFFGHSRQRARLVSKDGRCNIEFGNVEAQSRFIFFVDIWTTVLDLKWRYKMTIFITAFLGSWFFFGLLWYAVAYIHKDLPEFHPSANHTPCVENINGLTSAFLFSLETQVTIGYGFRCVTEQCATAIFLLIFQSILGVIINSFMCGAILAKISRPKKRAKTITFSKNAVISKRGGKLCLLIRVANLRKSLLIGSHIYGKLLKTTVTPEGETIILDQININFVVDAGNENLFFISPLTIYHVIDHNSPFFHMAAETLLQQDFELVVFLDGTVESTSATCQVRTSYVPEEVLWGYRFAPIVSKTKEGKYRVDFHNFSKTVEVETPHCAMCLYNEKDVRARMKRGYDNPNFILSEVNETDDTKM

SMILES | IC50 [nM]
Cc1cc(-n2ccc3cc(CN(C)CC(O)c4ccc5c(c4C)COC5=O)ccc32)ncc1C#N (single isomer, unassigned) [Example 33-I, 6-(5-(((2-hydroxy-2-(4-methyl-1-oxo-1,3-dihydroisobenzofuran-5-yl)ethyl)(methyl)amino)methyl)-1H-indol-1-yl)-4-methylnicotinonitrile] | 3300
Cc1c([C@@H](O)CNCc2cnn(-c3cc(N4CCCC4)c(C#N)cn3)c2)ccc2c1COC2=O [Example 119, (R)-6-(4-(((2-hydroxy-2-(4-methyl-1-oxo-1,3-dihydroisobenzofuran-5-yl)ethyl)amino)methyl)-1H-pyrazol-1-yl)-4-(pyrrolidin-1-yl)nicotinonitrile] | 91
Cc1cn(-c2ncc(CNC[C@H](O)c3ccc4c(c3C)COC4=O)cn2)c(C2CC2)n1 [Example 153, (R)-5-(2-(((2-(2-cyclopropyl-4-methyl-1H-imidazol-1-yl)pyrimidin-5-yl)methyl)amino)-1-hydroxyethyl)-4-methylisobenzofuran-1(3H)-one] | 520
Cc1cc(-n2cc(CN(CC3CCOC3)C[C@H](O)c3ccc4c(c3C)COC4=O)cn2)ncc1C#N (stereo partly drawn) [Example 85, 6-(4-((((R)-2-hydroxy-2-(4-methyl-1-oxo-1,3-dihydroisobenzofuran-5-yl)ethyl)((tetrahydrofuran-3-yl)methyl)amino)methyl)-1H-pyrazol-1-yl)-4-methylnicotinonitrile] | 230
CN[C@@H](CNCc1cnn(-c2cc(C)c(C#N)cn2)c1)c1ccc2c(c1C)COC2=O [Example 64, (R)-4-methyl-6-(4-(((2-(4-methyl-1-oxo-1,3-diydroisobenzofuran-5-yl)-2-(methylamino)ethyl)amino)methyl)-1H-pyrazol-1-yl)nicotinonitrile] | 430
Cc1c([C@@H](O)CNCc2cnn(-c3ccc4oc(=O)[nH]c4c3)c2)ccc2c1COC2=O [Example 121, (R)-5-(4-(((2-hydroxy-2-(4-methyl-1-oxo-1,3-dihydroisobenzofuran-5-yl)ethyl)amino)methyl)-1H-pyrazol-1-yl)benzo[d]oxazol-2(3H)-one] | 160
COc1cc(-n2cc(CNC[C@H](O)c3ccc4c(c3C)COC4=O)cn2)ccn1 [Example 80, (R)-5-(1-hydroxy-2-(((1-(2-methoxypyridin-4-yl)-1H-pyrazol-4-yl)methyl)amino)ethyl)-4-methylisobenzofuran-1(3H)-one] | 530
Cc1cc(-n2cc(CNC[C@H](NC(=O)CO)c3ccc4c(c3C)COC4=O)cn2)ncc1C#N [Example 63, (R)-N-(2-(((1-(5-cyano-4-methylpyridin-2-yl)-1H-pyrazol-4-yl)methyl)amino)-1-(4-methyl-1-oxo-1,3-dihydroisobenzofuran-5-yl)ethyl)-2-hydroxyacetamide] | 130
Cc1cn(-c2ccc(CNC[C@H](O)c3ccc4c(c3C)COC4=O)c(C)n2)cn1 [Example 77] | 190
Cc1ncn(-c2ncc(CNC[C@H](O)c3ccc4c(c3C)COC4=O)cn2)c1C(F)F [Example 90, (R)-5-(2-(((2-(5-(difluoromethyl)-4-methyl-1H-imidazol-1-yl)pyrimidin-5-yl)methyl)amino)-1-hydroxyethyl)-4-methylisobenzofuran-1(3H)-one] | 230
Cc1c(C(O)CN(Cc2ccc(-c3ccc(C#N)c(F)c3)cc2)Cc2cccnc2)ccc2c1COC2=O (stereo not shown) [Example 11-I, 3-fluoro-4′-(((2-hydroxy-2-(4-methyl-1-oxo-1,3-dihydroisobenzofuran-5-yl)ethyl)(pyridin-3-ylmethyl)amino)methyl)-[1,1′-biphenyl]-4-carbonitrile] | 3700
Cc1c(C(CO)N(C)Cc2cnc(-c3ccc4oc(=O)n(C)c4c3)nc2)ccc2c1COC2=O (single isomer, unassigned) [Example 14-I, 5-(5-(((2-hydroxy-1-(4-methyl-1-oxo-1,3-dihydroisobenzofuran-5-yl)ethyl)(methyl)amino)methyl)pyrimidin-2-yl)-3-methylbenzo[d]oxazol-2(3H)-one] | 4000
Cc1ncn(-c2ncc(CNC[C@H](O)c3ccc4c(c3C)COC4=O)cn2)n1 [Example 123, (R)-5-(1-hydroxy-2-(((2-(3-methyl-1H-1,2,4-ttiazol-1-yl)pyrimidin-5-yl)methyl)amino)ethyl)-4-methylisobenzofuran-1(3H)-one] | 210
Cc1c(C(O)CN(C)Cc2ccc(-n3cc(C#N)c4ccccc43)cc2)ccc2c1COC2=O (single isomer, unassigned) [Example 12-II, 1-(4-(((2-hydroxy-2-(4-methyl-1-oxo-1,3-dihydroisobenzofuran-5-yl)ethyl)(methyl)amino)methyl)phenyl)-1H-indole-3-carbonitrile] | 520
CC(=O)N(Cc1ccc(-c2ccc(C#N)c(F)c2)cc1)CC(O)c1ccc2c(c1C)COC2=O (single isomer, unassigned) [Example 34-I, N-((4′-cyano-3′-fluoro-[1,1′-biphenyl]-4-yl)methyl)-N-(2-hydroxy-2-(4-methyl-1-oxo-1,3-dihydroisobenzofuran-5-yl)ethyl)acetamide] | 780
Cc1c([C@@H](O)CNCc2cnn(-c3ccnc4c3ccn4C)c2)ccc2c1COC2=O [Example 166, (R)-5-(1-hydroxy-2-(((1-(1-methyl-1H-pyrrolo[2,3-b]pyridin-4-yl)-1H-pyrazol-4-yl)methyl)amino)ethyl)-4-methylisobenzofuran-1(3H)-one] | 1300
Cc1c(C(O)CN(C)Cc2ccc(-n3ccc4c(C#N)cccc43)cc2)ccc2c1COC2=O (single isomer, unassigned) [Example 28-II, 1-(4-(((2-hydroxy-2-(4-methyl-1-oxo-1,3-dihydroisobenzofuran-5-yl)ethyl)(methyl)amino)methyl)phenyl)-1H-indole-4-carbonitrile] | 390
Cc1cc(-n2cc(CCNC(=O)Cc3ccc4c(c3C)COC4=O)cn2)ncc1C#N [Example 38, N-(2-(1-(5-cyano-4-methylpyridin-2-yl)-1H-pyrazol-4-yl)ethyl)-2-(4-methyl-1-oxo-1,3-dihydroisobenzofuran-5-yl)acetamide] | 340
Cc1cc(-n2cc(CNC[C@@H](c3ccc4c(c3C)COC4=O)N(C)S(C)(=O)=O)cn2)ncc1C#N [Example 65, (R)-N-(2-(((1-(5-cyano-4-methylpyridin-2-yl)-1H-pyrazol-4-yl)methyl)amino)-1-(4-methyl-1-oxo-1,3-dihydroisobenzofuran-5-yl)ethyl)-N-methylmethanesulfonamide] | 38
Cc1cc(-n2nc(C)c(CNC[C@H](O)c3ccc4c(c3C)COC4=O)n2)ncc1C#N [Example 58, (R)-6-(4-(((2-hydroxy-2-(4-methyl-1-oxo-1,3-dihydroisobenzofuran-5-yl)ethyl)amino)methyl)-5-methyl-2H-1,2,3-triazol-2-yl)-4-methylnicotinonitrile] | 300
Cc1c(C(O)CN(C)Cc2ccc(-n3ccc4cc(C#N)ccc43)cc2)ccc2c1COC2=O (single isomer, unassigned) [Example 30-II, 1-(4-(((2-hydroxy-2-(4-methyl-1-oxo-1,3-dihydroisobenzofuran-5-yl)ethyl)(methyl)amino)methyl)phenyl)-1H-indole-5-carbonitrile] | 1200
Cc1c(C(CO)N(C)Cc2cnc(-n3ncc4c(C#N)cccc43)nc2)ccc2c1COC2=O (stereo not shown) [Example 2-I] | 1900
